The target in one experiment is T1, Frizzled1-GFP (Homo sapiens, UniProt Q9UP38).
T1 construct: expressed in transfected cells
As to the kind of experiment: Frizzled internalization assay (Fzd1-GFP). On the set-up: key: Punctate similar to control=0; trace amount of punctate greater than control=1; moderate=3; strong=5. The format is cell-based. The conditions noted are these: 6 hours, 0-5 point scale. On the procedure: The Fzd1-GFP assay was performed following a procedure similar to previously published work (Chen, M. Y.; Wang, J. B.; Lu, J. Y.; Bond, M. C.; Ren, X. R.; Lyerly, H. K.; Barak, L. S.; Chen, W. Biochemistry 2009, 48, 10267). Cells stably expressing Frizzled1-GFP plated in confocal dishes were treated, after 24 hours, with 12.5 μM of test compound or DMSO for 6 hours at 37° C. followed by fixation with 4% paraformaldehyde. The cells were then examined by microscopy using a LSM 510-Meta confocal microscope (Carl Zeiss, Thornwood, N.Y., USA) equipped with 40× and 100× apo chromat objectives. YFP was excited using a 488-nm argon laser line. Images were processed using the LSM software Image Browser (CarlZeiss, Thornwood, N.Y., USA). Plates were read twice in blinded fashion using a 0-5 point scale. ^aPunctate similar to control=0, trace amount of punctate greater than control=1, moderate=3, strong=5.

The test system of experiment [1] is Wnt/β-catenin transcription. As to the kind of experiment: Wnt-3A-stimulated TOPFlash reporter assay in HEK293 cells. The format is cell-based. The conditions noted are these: for IC50: Wnt-3A conditioned medium, 8 hour treatment, read-out: Inhibition Wnt/β-catenin transcription TopFlash IC50. On the procedure:
Stably transfected cells were seeded in 100 μl of cell growth medium/well in 96-well plates at 100% confluency. Fifty microliters of Wnt-3A conditioned medium containing the chemical compounds to be tested or DMSO was added to each well. After an 8 hour treatment, the cells were washed once with PBS and lysed with 55 μl of Passive Lysis Buffer supplied in the Dual-Luciferase Reporter Assay kit (Promega, Madison, Wis.). Twenty-five microliters of cell lysate was used for measuring luciferase activity in a 96-well plate reader (FluoStar Optima, BMG Labtech, Chicago, Ill.). Data were fit using GraphPad Prism (mean±SEM, n>=2).
Background: Reporter assays use an easily measured gene product as a stand-in for the process of interest.

SMILES strings stand for the structures. Where two headings read alike, the source gives them in different places.

T1 sequence (Q9UP38 70-647): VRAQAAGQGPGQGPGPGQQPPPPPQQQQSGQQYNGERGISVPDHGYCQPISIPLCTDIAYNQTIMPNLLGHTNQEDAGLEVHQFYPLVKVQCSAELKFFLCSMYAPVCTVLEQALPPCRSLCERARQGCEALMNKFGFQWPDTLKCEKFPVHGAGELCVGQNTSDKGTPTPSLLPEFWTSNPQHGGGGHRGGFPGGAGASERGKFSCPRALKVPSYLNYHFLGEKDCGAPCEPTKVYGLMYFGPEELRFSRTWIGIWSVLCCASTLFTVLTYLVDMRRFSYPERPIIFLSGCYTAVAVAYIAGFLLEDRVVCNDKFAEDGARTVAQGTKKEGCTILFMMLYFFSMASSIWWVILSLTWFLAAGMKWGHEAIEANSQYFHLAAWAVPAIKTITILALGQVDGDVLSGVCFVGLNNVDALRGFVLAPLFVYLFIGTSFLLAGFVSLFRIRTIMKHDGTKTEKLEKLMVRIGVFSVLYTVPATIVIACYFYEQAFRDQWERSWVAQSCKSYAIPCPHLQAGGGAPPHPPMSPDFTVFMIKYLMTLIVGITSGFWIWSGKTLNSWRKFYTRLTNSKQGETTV

As for `O=C(Nc1ccccc1)c1cc(Cl)ccc1O` [Compound 1, 5-chloro-2-hydroxy-N-phenylbenzamide], on Frizzled1-GFP, the “Fzd1-GFP internalization @12.5 μM” value turned out to be 0. Also, in experiment [1] (Homo sapiens, HEK293, 8 h), the IC50 was 11800 nM.

As to `O=C(Nc1ccc([N+](=O)[O-])cc1)c1cc(Cl)ccc1O` [Compound 2, 5-chloro-2-hydroxy-N-(4-nitrophenyl)benzamide], the “Fzd1-GFP internalization @12.5 μM” value at Frizzled1-GFP is given as 5. The IC50 in experiment [1] is 990 ± 320 nM.

In the case of `CC(=O)c1ccc(NC(=O)c2cc(Cl)ccc2O)cc1` [Compound 3, N-(4-acetylphenyl)-5-chloro-2-hydroxybenzamide], at Frizzled1-GFP, the “Fzd1-GFP internalization @12.5 μM” value is 0. In experiment [1] (Homo sapiens, HEK293, 8 h), the IC50 stood at 6420 ± 510 nM.

As to `NC(=O)c1ccc(NC(=O)c2cc(Cl)ccc2O)cc1` [Compound 4, N-(4-carbamoylphenyl)-5-chloro-2-hydroxybenzamide], the “Fzd1-GFP internalization @12.5 μM” value at Frizzled1-GFP stood at 0. Also, the IC50 in experiment [1] (Homo sapiens, HEK293, 8 h) was more than 12000 nM.

Regarding `CS(=O)(=O)c1ccc(NC(=O)c2cc(Cl)ccc2O)c(Cl)c1` [Compound 5, 5-chloro-N-(2-chloro-4-(methylsulfonyl)phenyl)-2-hydroxybenzamide], the “Fzd1-GFP internalization @12.5 μM” value at Frizzled1-GFP turned out to be 0. In addition, the IC50 in experiment [1] (Homo sapiens, HEK293, 8 h) was determined as 7660 nM.

In the case of `O=C(CCCCCN1C(=O)C=CC1=O)Oc1ccc(Cl)cc1C(=O)Nc1ccc([N+](=O)[O-])cc1Cl` [Compound 67, 4-chloro-2-((2-chloro-4-nitrophenyl)carbamoyl)phenyl 6-(2,5-dioxo-2,5-dihydro-1H-pyrrol-1-yl)hexanoate], in experiment [1] (0.5 μM), the “Inhibition Wnt/β-catenin transcription TopFlash, % inhibition @ 0.5 μM” value stood at 75% inhibition.

For `CCCCCCCC/C=C\CCCCCCCC(=O)Oc1ccc(Cl)cc1C(=O)Nc1ccc([N+](=O)[O-])cc1Cl` [Compound 68, 4-chloro-2-((2-chloro-4-nitrophenyl)carbamoyl)phenyl oleate], in experiment [1] (Homo sapiens, HEK293, 8 h), the inhibition – broadly, the change of the read-out against control, counted positive when it falls – at 2 µM came out at 60%.

Regarding `CCCCC/C=C\C/C=C\CCCCCCCC(=O)Oc1ccc(Cl)cc1C(=O)Nc1ccc([N+](=O)[O-])cc1Cl` [Compound 69, 4-chloro-2-((2-chloro-4-nitrophenyl)carbamoyl)phenyl (9Z,12Z)-octadeca-9,12-dienoate], the inhibition at 2 µM in experiment [1] (Homo sapiens, HEK293, 8 h) worked out at 85%.

Turning to `O=C(Nc1ccc([N+](=O)[O-])cc1Cl)c1cc(Cl)ccc1OC(=O)N1CCOCC1` [Compound 71, 4-chloro-2-((2-chloro-4-nitrophenyl)carbamoyl)phenyl morpholine-4-carboxylate], the “Inhibition Wnt/β-catenin transcription TopFlash, % inhibition @ 20 μM” value in experiment [1] (20 μM) is 60% inhibition.

As for `CCCCCCCCOC(=O)Oc1ccc(Cl)cc1C(=O)Nc1ccc([N+](=O)[O-])cc1Cl` [Compound 72, 4-chloro-2-((2-chloro-4-nitrophenyl)carbamoyl)phenyl octyl carbonate], in experiment [1] (Homo sapiens, HEK293, 8 h), the IC50 is 500 nM.

Take `O=c1oc2ccc(Cl)cc2c(=O)n1-c1ccc([N+](=O)[O-])cc1Cl` [Compound 75, 6-chloro-3-(2-chloro-4-nitrophenyl)-2H-benzo[e][1,3]oxazine-2,4(3H)-dione]: the IC50 in experiment [1] (Homo sapiens, HEK293, 8 h) is 370 ± 130 nM.

Turning to `O=c1oc2ccc(Cl)cc2c(=O)n1-c1ccc(C(F)(F)F)cc1F` [Compound 76, 6-chloro-3-(2-fluoro-4-(trifluoromethyl)phenyl)-2H-benzo[e][1,3]oxazine-2,4(3H)-dione], the “Inhibition Wnt/β-catenin transcription TopFlash, % inhibition @ 1 μM” value in experiment [1] (1 μM) worked out at 90% @ 1 μM.

For the compound `CCCCCCC(=O)Oc1ccc(Cl)cc1C(=O)N(C(=O)CCCCCC)c1ccc([N+](=O)[O-])cc1Cl` [Compound 77, 4-Chloro-2-((2-chloro-4-nitrophenyl)(heptanoyl)carbamoyl)phenyl heptanoate], the IC50 in experiment [1] (Homo sapiens, HEK293, 8 h) came out at 1600 nM.

For the compound `CCCCCCCCOC(=O)O/C(=N/c1ccc([N+](=O)[O-])cc1Cl)c1cc(Cl)ccc1OC(=O)OCCCCCCCC` [Compound 79, 5-chloro-N-(2-chloro-4-nitrophenyl)-2-(((octyloxy)carbonyl)oxy)benzimidic (octyl carbonic) anhydride], the IC50 in experiment [1] (Homo sapiens, HEK293, 8 h) was found to be 800 nM.

The compound `O=C(Nc1ccc(Br)cc1)c1cc(Br)ccc1O` [D, 5-bromo-N-(4-bromophenyl)-2-hydroxybenzamide, reference compound] yielded an inhibition at 2 µM in experiment [1] (Homo sapiens, HEK293, 8 h) of 60%.
